Experimental data reported in publication PMC11694536 (Alzheimer's & Dementia : Translational Research & Clinical …, 2024).
In brackets after ≈: the same amount, converted by molar mass.

Columns and labels:
[1] = Phase 1 clinical safety and tolerability; format: in vivo, human
[2] = target: human ether‐à‐go‐go (hERG) channel (Homo sapiens, UniProt Q12809); assay: hERG channel inhibition; format: biochemical
[3] = MDCK passive permeability; format: in vitro ADME, canine; conditions: dog
[4] = Clinical pharmacokinetics in Phase 1 studies; format: in vivo, human
[5] = Plasma protein binding, mice; format: in vitro ADME; conditions: mouse
[6] = test system: protein O‐GlcNAc modification in human embryonic kidney cells; assay: Cellular protein O-GlcNAc increase; format: cell-based; conditions: read-out: Protein O‐GlcNAc (cellular) Relative EC50
[7] = Solubility; format: physicochemical; conditions: phosphate buffer, pH 7.5, aqueous buffer
[8] = Phase 2 study PROSPECT-ALZ in early symptomatic AD; format: in vivo, human; conditions: Prospect‐ALZ Phase 2 study; full results to be published separately
[9] = Predicted human PK; conditions: allometry from rat, dog, monkey PK
[10] = SAD study, single oral doses 0.15 to 16 mg

Chain of human ether‐à‐go‐go (hERG) channel (Q12809 whole entry): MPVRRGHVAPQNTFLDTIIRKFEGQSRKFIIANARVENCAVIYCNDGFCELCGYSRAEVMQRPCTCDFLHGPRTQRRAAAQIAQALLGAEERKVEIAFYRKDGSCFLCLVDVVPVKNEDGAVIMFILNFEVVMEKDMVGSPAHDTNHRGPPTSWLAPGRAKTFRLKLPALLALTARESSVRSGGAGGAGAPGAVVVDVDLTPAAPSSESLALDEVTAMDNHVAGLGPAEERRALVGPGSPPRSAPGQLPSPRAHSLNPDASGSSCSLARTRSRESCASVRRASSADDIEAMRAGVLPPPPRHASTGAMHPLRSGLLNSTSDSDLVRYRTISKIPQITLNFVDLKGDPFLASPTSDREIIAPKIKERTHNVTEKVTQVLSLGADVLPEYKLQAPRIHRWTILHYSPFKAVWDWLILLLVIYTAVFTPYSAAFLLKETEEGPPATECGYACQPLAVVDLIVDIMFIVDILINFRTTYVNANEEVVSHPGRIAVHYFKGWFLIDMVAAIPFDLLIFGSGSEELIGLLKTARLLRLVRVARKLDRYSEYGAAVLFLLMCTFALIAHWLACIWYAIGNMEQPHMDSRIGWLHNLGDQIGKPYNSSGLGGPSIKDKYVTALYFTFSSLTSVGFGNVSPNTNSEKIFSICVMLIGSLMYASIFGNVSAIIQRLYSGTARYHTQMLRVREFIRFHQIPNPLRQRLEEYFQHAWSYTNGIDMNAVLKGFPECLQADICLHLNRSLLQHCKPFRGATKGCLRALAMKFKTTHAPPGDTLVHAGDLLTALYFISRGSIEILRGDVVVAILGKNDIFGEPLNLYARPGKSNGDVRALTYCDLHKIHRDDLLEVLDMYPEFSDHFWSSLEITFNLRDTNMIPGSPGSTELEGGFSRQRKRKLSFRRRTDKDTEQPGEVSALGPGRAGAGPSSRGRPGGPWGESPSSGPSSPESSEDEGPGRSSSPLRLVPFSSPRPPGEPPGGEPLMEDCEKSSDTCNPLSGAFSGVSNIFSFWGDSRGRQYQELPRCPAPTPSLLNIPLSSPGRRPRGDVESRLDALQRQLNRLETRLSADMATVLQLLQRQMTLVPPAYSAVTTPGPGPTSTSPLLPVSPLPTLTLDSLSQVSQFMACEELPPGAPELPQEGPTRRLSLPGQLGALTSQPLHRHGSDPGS

Papp [3]: 50.1 ×10⁻⁶ cm/s
accumulation with QD dosing ([4]; MAD study, 1, 3, 7 mg QD for 14 days, day 1 vs day 14): minimal accumulation
CL/F [4, 10]: 12 L/h
V/F [4, 10]: 112 L
fraction unbound [5]: 0.684
solubility [7]: 1360 µg/mL (≈ 3.55 mM)
predicted human apparent clearance (CL/F) [9]: 12 L/h
predicted human apparent volume of distribution (V/F) [9]: 48 L
SMILES: CC(=O)Nc1nc(F)c(CN2CC[C@H](OCc3noc(C)n3)C[C@@H]2C)s1 [ceperognastat]
participants reporting at least one TEAE ([1]; MD‐PET study, 1 mg QD 14 days): Four out of four
participants reporting TEAEs ([1]; SAD study, 13 of 23 ceperognastat-treated participants): 56.5%
participants reporting at least one TEAE ([1]; SD‐PET study, 8 of 16 participants, single oral dose): 50%
serious adverse events (SAEs) ([1]; all Phase 1 clinical studies): no serious adverse events
IC50 [2]: 81 µM
EC50 [6]: 0.0219 ± 0.0073 µM
clinical benefit in early AD [8]: did not show evidence of clinical benefit
